Square brackets hold non-standard residues; d marks the D form. Peptide text beside a SMILES is read from it. d(pT) = C[C@H](OP(=O)(O)O)[C@@H](N)C(=O)O; 2Nal = N[C@@H](Cc1ccc2ccccc2c1)C(=O)O; Pip = O=C(O)[C@@H]1CCCCN1
How the values were obtained:
X. laevis embryos = assay: Microinjection in X. laevis embryos, cell division; type: in vivo; conditions: for number of vital embryos: 5 hours
Experimental: FIG. 8 depicts the blocking of cell division by the injection of peptide 17 in X. laevis embryos. 50-300 pmol of peptide 17 or 300 pmol of its nonphosphorylated derivative (control) dissolved in 10 nl PBS buffer were microinjected in the animal half of X. laevis embryos at stage 2 of development. Embryos with large and/or apoptotic appearing cells surrounded by normally developing cells were counted after further 5 hours (stage 8-9) of development. […] Each value is the average of four independent experiments.
FIGS. 9A-F depicts phenotypic analysis of X. laevis embryos after injection of peptide 17. 300 pmol of peptide 17 or its nonphosphorylated derivative dissolved in 10 nl PBS buffer were injected in the animal half of X. laevis embryos at stage 2 of development. 1.5 hour at stage 6 (A), 2.5 hours at stage 7 (B) and 4-5 hours at stage 8-9 (C, D) after injection enlarged cells became visible. Cells that are blocked in cell division are marked with a white arrow. Controls of uninjected embryos of stage 8-9 and embryos that were injected with 300 pmol of the nonphosphorylated derivative of peptide 17 are shown in panels E and F. The site where the nonphosphorylated derivative of peptide 17 was injected is marked with a white arrow (F).
FIGS. 10A-D depict the rescue of peptide 17 caused cell division block in X. laevis embryos by hPin1 (A, B) and different hPin1 variants (C, D). FIG. 10A depicts the time course of V5-tagged hPin1 expression was analyzed by preparation of X. laevis embryo lysate 1, 2 and 4 hours after injection of 1, 2 or 3 ng of V5-tagged hPin1 mRNA. In every case, the injected volume was 10 nl. Lysates were prepared in lysis buffer containing phosphatase and protease inhibitors. Samples were separated by SDS PAGE followed by western blotting. Endogenous XlPin1 and V5-tagged hPin1 were detected using an anti hPin1 PPIase domain antiserum as primary antibody followed by incubation with a horseradish peroxidase-conjugated secondary antibody. Visualization was done using the SuperSignal® substrate. […] In every case, the whole volume of injection was 10 nl. The indicated amount of the mRNA was injected in the animal half of 30 embryos at stage 2 of development. Embryos with large and/or apoptotic appearing cells surrounded by normally developed cells were counted after additional 5 hours of development (stage 8-9). […] Each percentage of vital embryos shown in the figure is the average of four independent experiments. FIG. 10C indicates the expression of V5-tagged hPin1 variants was evaluated by preparation of embryo lysate after 4 hours of injection of the respective mRNA (2 ng) in X. laevis embryos. Lysates were prepared in lysis buffer containing phosphatase and protease inhibitors. Samples were separated using SDS PAGE followed by western blot analysis. Endogenous XlPin1 and injected V5-tagged hPin1 variants were detected using an anti hPin1 PPIase domain antiserum as primary antibody and a horseradish peroxidase-conjugated secondary antibody. Visualization was done by a chemiluminescent reaction using the SuperSignal® substrate (Pierce). FIG. 10D depicts 250 pmol of peptide 17 was coinjected with 2 ng mRNA of the indicated V5-tagged hPin1 variant (whole volume 10 nl) in the animal half of 30 X. laevis embryos at stage 2 of development. Results were analyzed as described for FIG. 10B. Each percentage of vital embryos shown in the figure is the average of four independent experiments.
Microinjection was done into the animal half of X. laevis embryos at stage 2 of development. In every case, the injection volume was 10 nl. Immunofluorescence studies of frozen X. laevis embryo sections were performed as previously described (Julius et al., 2000). Ten-micrometer cryosections of stage 8 embryos were labelled using a monoclonal anti hPin1 antibody (mouse) followed by incubation with Alexa Fluor 546™-conjugated anti mouse antibody of goat serum (Molecular Probes). […]

[1] = biological target: T1, interaction of MPM-2 antigens with GST-hPin1 (Homo sapiens, UniProt Q13526); assay: MPM-2 competition assay; type: binding; conditions: mitotic HeLa cell lysate, 8 μM GST-hPin1
T1 construct: made in house
Experimental: FIG. 7 depicts the influence of peptide 17 on the interaction of MPM-2 antigens with hPin1. The indicated concentration of peptide 17 or its nonphosphorylated derivative (control) was incubated with an 8 μM solution of GST-hPin1. After addition of mitotic HeLa cell lysate, GST-hPin1 was extracted from the respective mixture using glutathione sepharose. Samples were analyzed regarding extracted GST-hPin1 and coprecipitated MPM-2 antigenes by SDS PAGE and western blot analysis. Untreated lysate of mitotic HeLa cells was loaded on the first line (extract). MPM-2 antigenes were detected using the monoclonal anti MPM-2 antibody (mouse). GST-hPin1 was detected using an anti hPin1 PPIase domain antiserum (rabbit). Horseradish peroxidase-conjugated antibodies from mouse or rabbit were used as secondary antibodies. […]
1.3 mM of Peptide 17 or its nonphosphorylated derivative were incubated with GST-hPin1 (8 μM) for 2 hours at 4° C. […] Following SDS-PAGE, the samples were analyzed by western blot analysis. GST-hPin1 and coextracted MPM-2 antigens were detected using an anti hPin1 PPIase domain antiserum (rabbit) or monoclonal anti MPM-2 antibody (Upstate Biotechnology) from mouse. […]
MPM-2 antigens are mitotic phosphoproteins that are specifically recognized by the monoclonal antibody MPM-2. […] The coextracted MPM-2 antigenes were detected after SDS PAGE by western blot analysis using the anti MPM-2 antibody. […]

T1 sequence (Q13526 whole entry): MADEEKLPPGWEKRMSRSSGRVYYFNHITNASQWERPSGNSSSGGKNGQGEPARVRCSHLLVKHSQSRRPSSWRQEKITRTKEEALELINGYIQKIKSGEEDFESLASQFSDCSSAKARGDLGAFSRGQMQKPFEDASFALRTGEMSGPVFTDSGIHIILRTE

**Q.** `CC(=O)N[C@@H](Cc1ccccc1)C(=O)N[C@@H](C(=O)N1CCCC[C@H]1C(=O)N[C@@H](Cc1ccc2ccccc2c1)C(=O)N[C@@H](CCC(N)=O)C(N)=O)[C@H](C)OP(=O)(O)O` [Peptide 17, Ac-Phe-D-Thr(PO3H2)-Pip-Nal-Gln-NH2] (Ac-F[d(pT)][Pip][2Nal]Q-NH2) was tested. Which “number of vital embryos” value (X. laevis embryos; 250 pmol peptide 17, coinjection of 2 ng of V5-tagged hPin1 mRNA) did it give?
**A.** up to 73%

**Q.** What about the “number of vital embryos” value (X. laevis embryos; 250 pmol peptide 17, without coinjection of mRNA) of the same molecule?
**A.** 18%

**Q.** What about the “normal embryos after microinjection” value (X. laevis embryos; 300 pmol, stage 2 embryos, examined 5 hours after injection) of the same molecule?
**A.** very low number of normal embryos

**Q.** What about the “effect on development of the embryos” value (X. laevis embryos; microinjection at stage 2) of the same molecule?
**A.** cell cycle blockage and embryonic death

**Q.** What about the “influence on interaction of MPM-2 antigenes with GST-hPin1” value [1] of the same molecule?
**A.** did not influence
